In patent US20190284192A1, “NITROGENOUS MACROCYCLIC COMPOUND, PREPARATION METHOD THEREFOR, PHARMACEUTICAL COMPOSITION AND APPLICATION THEREOF” (LUOXIN PHARMACEUTICAL (SHANGHAI) CO., LTD., priority 2016, published 2019):

Columns and labels:
MV-4-11 cells = test: Inhibitory effect on MV-4-11 cells (CellTiter-Glo); assay type: cell-based; settings: Homo sapiens, MV4-11; 72 hours, CellTiter-Glo; read-out: MV-4-11
[1] = Metabolic stability in human liver microsomes; assay type: in vitro ADME; settings: human liver microsomes 0.5 mg/mL, NADPH, 37° C.; for CLint scaled at 1 µM: pH 7.4, read-out: HLM_CLint
Description: (§1) Determinations of the metabolic stability of the compound from the above embodiments, the detailed operation steps are as followed:
(§2) 1. Preparation of buffer C:
(§3) Buffer A: 1.0 L of 0.1 M potassium dihydrogen phosphate buffer (containing 1.0 mM EDTA);
(§4) Buffer B: 1.0 L of 0.1 M dipotassium hydrogen phosphate buffer (containing 1.0 mM EDTA);
(§5) Buffer C: 500 mL Buffer B was titrated with Buffer A to pH 7.4.
(§6) 2. 10 mM stock solution preparation:
(§7) 10 mM test compound: A certain amount of the test compound was weighed and dissolved in DMSO.
(§8) 10 mM control: 5.455 mg of ketanserin dissolved in 1 mL DMSO.
(§9) 3. Preparation of the drug solution:
(§10) 500 μM solution: 5 μL of 10 mM stock solution (see step 2) was added into 95 μL ACN;
(§11) 1.5 μM dosing solution (dissolved in liver microsome solution):
(§12) 18.75 μL of 20 mg/mL liver microsomes was added into 479.75 μL of Buffer C, then 1.5 μL of 500 μM solution was added and mixed gently by shaking.
(§13) 4. Preparation of 6 mM NADPH solution:
(§14) 15 mg NADPH was weighted, then added into 3 mL of buffer C to prepare a 6 mM NADPH solution.
(§15) 5. 30 µL of 1.5 μM dosing solution (see step 3) was added into the wells of the 96-well plate set at different time points (0 minutes, 5 minutes, 15 minutes, 30 minutes, 45 minutes), number of dulplicate sample is 2.
(§16) 6. Preparation of a 0 minutes sample: 135 μL ACN (with internal standard) was added to the 0 minutes well, followed by 15 µL of 6 mM NADPH solution.
(§17) 7. The 96-well plate containing 1.5 μM dosing solution and NADPH solution were preheated in a 37° C. water bath for 5 minutes.
(§18) 8. The 15 µL of 6 mM NADPH solution preheated was added into the wells set to 5 minutes, 15 minutes, 30 minutes, 45 minutes, then the reaction was initiated and started counting the time.
(§19) 10. The sample was vortexed for 10 min, and then centrifuged for 15 minutes on a centrifuge (Thermo Multifuge×3R) using 5594×g.
(§20) 11. 50 μL of the supernatant was taken from the centrifuged sample, transferred to a 96-well sample plate to which 100 μL of ultrapure water had already been added, mixed, and finally sent to LC-MS/MS for analysis.
(§21) Half time (T1/2)=0.693/K (K is the rate constant obtained by linear regression of the logarithm of the concentration as vertical coordinates and the culturing time as the abscissa)
(§22) 2. According to the equation formula bellow, Excel was used to plot the compound content versus reaction time, as well as half life calculation (min)
(§23) Y=(Y0−Plateau)×e^(−K*X)+Plateau
(§24) Y0 represents the compound content at 0 minutes; Y represents the compound content; X represents the time point; K represents degration rate constant of the compound; Plateau represents the lowest possible content of the compound (defined herein as 0).

[2] = Metabolic stability in mouse liver microsomes; assay type: in vitro ADME; settings: mouse liver microsomes 0.5 mg/mL, NADPH, 37° C.; for CLint scaled at 1 µM: pH 7.4, read-out: MLM_CLint
Description: as §1, §2, §3, §4, §5, §6, §7, §8, §9, §10, §11, §12, §13, §14, §15, §16, §17, §18, §19, §20, §21, §22, §23, §24

BRD4 (BD2) = molecular target: T1, BRD4 (BD2) (Homo sapiens, UniProt O60885); test: BRD4 (BD2) bromodomain binding, HTRF; settings: 2 h incubation at r.t.
T1 construct: Each member comprises two tandem bromodomains (BD1 and BD2) for recognizing the acetylated lysine residues

BRD4 (BD1) = molecular target: T2, BRD4 (BD1) (Homo sapiens, UniProt O60885); test: BRD4 (BD1) bromodomain binding, HTRF; settings: 2 h incubation at r.t.
T2 construct: Each member comprises two tandem bromodomains (BD1 and BD2) for recognizing the acetylated lysine residues

| Compound | IC50 (MV-4-11 cells) | HLM_T1/2 [1] | CLint scaled at 1 µM [1] | MLM_T1/2 [2] | CLint scaled at 1 µM [2] | IC50 (BRD4 (BD2)) | IC50 (BRD4 (BD1)) |
| --- | --- | --- | --- | --- | --- | --- | --- |
| C[C@@H]1N=C(c2ccc(F)cc2)c2ccc(CS(=O)(=O)N(C)C)cc2-c2cn(C)c(=O)cc21 [Compound 4073, (S)-1-(7-(4-flurophenyl)-2,5-dimethyl-3-oxo-3,5-dihydro-2H-benzo[c]pyrido[3,4-e]azepin-10-yl)-N,N-dimethylmethane sulfamide] | 2 nM | 139.87 min | 12.4 mL/min/kg | 156.12 min | 35 mL/min/kg | 1 nM | 1 nM |
| CCS(=O)(=O)Cc1ccc2c(c1)-c1cn(C)c(=O)cc1CN=C2c1ccc(F)cc1F [Compound 4012, 7-(2,4-difluorophenyl)-2-methyl-10-(ethylsulfonemethyl)-2H-benzo[c]pyrido[3,4-e]azepin-3(5H)-ketone] | 80 nM | 1473.23 min | 1.18 mL/min/kg | 1568.22 min | 3.48 mL/min/kg | 2 nM | 4 nM |
| C[C@@H]1N=C(c2ccc(F)cc2)c2ccc(CS(N)(=O)=O)cc2-c2cn(C)c(=O)cc21 [Compound 4071, (S)-(7-(4-flurophenyl)-2,5-dimethyl-3-oxo-3,5-dihydro-2H-benzo[c]pyrido[3,4-e]azepin-10-yl)methane sulfamide] | 10 nM | ∞ | – | ∞ | – | 1 nM | 2 nM |
| CC[C@@H]1N=C(c2ccc(F)cc2)c2ccc(CS(=O)(=O)CC)cc2-c2cn(C)c(=O)cc21 [Compound 4038, (S)-5-ethyl-10-((ethylsulfonyl)methyl)-7-(4-flurophenyl)-2-methyl-2,5-dihydro-3H-benzo[c]pyrido[3,4-e]azepin-3-ketone] | 4 nM | ∞ | – | ∞ | – | 1 nM | 2 nM |
| Cn1cc2c(cc1=O)[C@H](CC(N)=O)N=C(c1ccc(Cl)cc1)c1ccccc1-2 [Compound 4017, (S)-2-(7-(4-chlorophenyl)-2-methyl-3-oxo-3,5-dihydro-2H-benzo[c]pyrido[3,4-e]azepin-5-yl)acetamide] | 10 nM | 854.27 min | 2.03 mL/min/kg | 215.28 min | 25.4 mL/min/kg | 2 nM | 4 nM |
| CCNC(=O)C[C@@H]1N=C(c2ccc(Cl)cc2)c2ccccc2-c2cn(C)c(=O)cc21 [Compound 4016, (S)-2-(7-(4-chlorophenyl)-2-methyl-3-oxo-3,5-dihydro-2H-benzo[c]pyrido[3,4-e]azepin-5-yl)-N-ethylacetamide] | 16 nM | 34.22 min | 50.8 mL/min/kg | 21.37 min | 255 mL/min/kg | 1 nM | 3 nM |
| CCNC(=O)C[C@@H]1N=C(c2ccc(F)cc2)c2cc(OC)ccc2-c2cn(C)c(=O)cc21 [Compound 4023, (S)—N-ethyl-2-(7-(4-fluorophenyl)-9-methoxy-2-methyl-3-oxo-3,5-dihydro-2H-benzo[c]pyrido[3,4-e]azepin-5-yl)acetamide] | 9 nM | 121.24 min | 14.3 mL/min/kg | 75.05 min | 72.7 mL/min/kg | 1 nM | 3 nM |
| CNS(=O)(=O)Cc1ccc2c(c1)-c1cn(C)c(=O)cc1[C@H](C)N=C2c1ccc(F)cc1 [Compound 4072, (S)-1-(7-(4-flurophenyl)-2,5-dimethyl-3-oxo-3,5-dihydro-2H-benzo[c]pyrido[3,4-e]azepin-10-yl)-N-methylmethane sulfamide] | 6 nM | ∞ | – | 372.45 min | 14.7 mL/min/kg | 1 nM | 1 nM |
